Reference: article PMC7618036, “An oral heme oxygenase inhibitor targets immunosuppressive perivascular macrophages in preclinical models of cancer” (Science translational medicine, 2025)

System: CD8^+ T-cells in MMTV-PyMT tumors
Test: Flow cytometry of the TME of MMTV-PyMT tumors after 36 h treatment
Format: in vivo, mouse
Conditions: single-agent therapy
Method: At 36 h post treatment initiation of treatment mice were sacrificed and tumors were harvested and analyzed. (A) Schematic representing the dosing strategy. (B) The fold change of tumor growth over 36 h post initiation of treatment. (C-G) Tumors were enzyme-digested to release single cells which were analyzed for their live (7AAD^-) stromal cell composition using flow cytometry (n=5 tumors per group) (C) and CD8^+ T-cells (D). Gating strategy (left panel) and quantitation of CD8^+ T-cell subsets based on CD62L and CD44 expressions (right panel; TCM; T central memory cells, TEM; T effector memory cells, Teff; T effectors cells) (E), and the ability of the tumoral CD8^+ T-cells to secrete IFNγ post ex vivo exposure to PMA/ionomycin treatment (F). […] Scale bar is 100 µm and white arrows indicate infiltrating CD8^+ T-cells. […] Image in panel (A) was created using BioRender. Bar charts show the mean, error bars SD, and the dots show individual data points from individual tumors and mice. Gemc.; gemcitabine. * P<0.05, ** P<0.01, *** P<0.001.
MN-MCA1 sarcoma cells were orthotopically implanted into syngeneic C57Bl/6 mice for tumors. A total of 2.5 x 10^5 cells in 100 μL RPMI were injected subcutaneously into female mice. […] When tumors became palpable, volumes were measured every 2-4 days using digital caliper measurements of the long (L) and short (S) dimensions of the tumor. […]

Structure (SMILES): O=c1[nH]cc(F)c(=O)[nH]1 [5-FU, 5-fluorouracil]
- abundance of CD8^+ T-cells in the TME: increase in the abundance of CD8^+ T-cells
